Assay results published in patent US20080076751A1, “Azetidinone Derivatives and Methods of Use Thereof” (priority 2006, published 2008).

The compounds below were run against T1, rat VR1 (Rattus norvegicus, UniProt O35433) (assay: TRPV1 screening assay (FLIPR), rat VR1 % activation at single concentration). Settings: not given.
T1 construct: expressed in transfected cells; host or cells: HEK293-TetOFF
T1 sequence (O35433 whole entry): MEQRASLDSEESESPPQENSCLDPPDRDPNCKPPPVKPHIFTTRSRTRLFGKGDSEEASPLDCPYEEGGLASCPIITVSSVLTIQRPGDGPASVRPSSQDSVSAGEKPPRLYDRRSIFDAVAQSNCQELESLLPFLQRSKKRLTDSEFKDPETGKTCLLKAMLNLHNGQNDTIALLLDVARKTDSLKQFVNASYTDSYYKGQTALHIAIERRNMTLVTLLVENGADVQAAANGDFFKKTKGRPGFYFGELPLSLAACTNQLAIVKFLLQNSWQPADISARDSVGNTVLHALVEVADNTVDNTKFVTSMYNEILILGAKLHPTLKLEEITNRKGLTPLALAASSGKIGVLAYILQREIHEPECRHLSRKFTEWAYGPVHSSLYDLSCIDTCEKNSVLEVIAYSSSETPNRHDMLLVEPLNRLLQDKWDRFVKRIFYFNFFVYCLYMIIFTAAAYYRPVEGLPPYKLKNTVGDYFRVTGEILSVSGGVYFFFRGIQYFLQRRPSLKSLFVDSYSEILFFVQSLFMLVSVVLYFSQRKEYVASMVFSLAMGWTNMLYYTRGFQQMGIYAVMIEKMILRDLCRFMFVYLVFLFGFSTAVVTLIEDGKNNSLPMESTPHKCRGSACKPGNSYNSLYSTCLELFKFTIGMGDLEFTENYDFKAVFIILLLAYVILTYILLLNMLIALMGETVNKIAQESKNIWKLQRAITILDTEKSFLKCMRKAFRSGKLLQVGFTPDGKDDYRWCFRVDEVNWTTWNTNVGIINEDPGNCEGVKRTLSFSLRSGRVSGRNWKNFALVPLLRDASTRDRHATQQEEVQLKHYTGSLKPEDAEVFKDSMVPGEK
Assay type: cell-based
Text: • 1) Cell line: HEK293-Tet^OFF-TRPV1 • 2) Media: MEM (Invitrogen) • 3) 10% Tet-FBS (Clontech #8630-1) • 4) Fungizone (Gibe #15290-018 (100X)) • 5) Penn/Strep (Gibco #15140-122 (100X)) • 6) Geneticin (Gibco #10131-027 (100X)) • 7) Hygromycin (Clontech #8057-1) • 8) Doxycycline (Clontech #8634-1) • 9) Trypsin/EDTA (Gibco #25200-056) • 10) 100 mm cell culture plates (Falcon #3003) • 11) 96-well poly-D-lysine plates (Fisher #08-774-256) • 12) Hank's Balanced Salt Solution (HBSS) (GIBCO #14025-092) • 13) HEPES Buffer (GIBCO #15630-080) • 14) 30% BSA (Research Organics #1334A) • 15) Probenecid (Sigma P-8761) • 16) Fluo-4, AM (50 μg) (Molecular Probes F-23917) • 17) Pluronic F-127 20% (Molecular Probes P-3000). • 18) capsazepine (Sigma C-191) • 19) capsaicin (Sigma M-2028) • 20) compound plates (NUNC #442587) • 21) black pipet tips 96-well FLIPR (Robbins Scientific 1043-24-0) • 22) Additional reagents available from Fisher: methanol, DMSO, NaOH Reagent Preparation: 1) Cells: HEK293-Tet^OFF-TRPV11
• and Doxycycline 2.5 μg/mL final (from a 1000× stock in PBS) • Cells must be fed and/or split every 2-3 days (to maintain transcriptional repression with Doxycycline). • Must be split no more than 1:5 (50-75% confluency) to maintain growth and viability. • Grown on regular tissue culture plates (e.g Falcon 3003-100 mm) • Split cells via Trypsin/EDTA: incubate with trypsin at room temperature no longer than 5 minutes (HEK293 cells have a tendency to ball up if over trypsinized). • Two days prior to assay, the cells are split into 96-well plates in cell media in the absence of doxycycline at a concentration of 40,000 cells/well in a volume of 200 μL. 2) FLIPR buffer is prepared fresh:
For assay: • a) Dilute stock by adding 0.8 μL into 1 mL of MeOH (final=80 uM). • b) Add 50 μL of diluted stock to 20 mL of FLIPR buffer (final=0.2 uM) • c) Agonist solution is added 150 μL/well to 96-well plate. • d) Final agonist concentration on cells will be 50 nM. (˜EC80) 6) Compound Plate preparation: • a) Compound plate is filled with 150 μL/well of FLIPR buffer • b) 3 μL of compound mixtures (1 mg/mL) is added to each well (represents a 3× solution and final DMSO=0.67%) Assay Procedure: • 1) Media is removed from cells grown in 96-well dishes. • 2) 100 μL of Fluo-4 containing FLIPR buffer in pipetted into each well. • 3) Plates are incubated for 30-60 minutes at 37° C. in 5% CO2 incubator. • 4) Plates are then washed three times with 100 μL of FLIPR buffer. • 5) 100 μL of FLIPR buffer is left in each well and plate is incubated at 37° C. for at least 20 minutes. • 6) Signal of dye-labeled plate is initially determined using laser at 0.300 W with an exposure time of 0.4 seconds. Laser is adjusted upwards for an average signal≧10,000/well and less than 10% variability. 7) Compound addition conditions are as follows: • FLIPR setup (dual sequence parameters): • Sequence 1: • First interval 1 sec/60 counts • Second interval 6 sec/50 counts • Fluid addition=50 μL • Pipettor height 110 μL • Dispense Speed=30 μL/sec • Sequence 2: • Second interval 1 sec/60 counts • Second interval 6 sec/40 counts • Fluid addition=50 μL • Pipettor height=140 μL • Dispense Speed=50 μL/sec Data Analysis: • 1) Data from both additions is reported as Max-Min for each well
With N#Cc1cccc(N2C(=O)C3(CCN(C(=O)Nc4cccc(C(F)(F)F)c4)CC3)C2c2ccccn2)c1 (stereo not drawn) [drawing 663] the “rat VR1 % activation @ 3.3 ug/ml compound” value was 61%. For O=C(Nc1cc(F)cc(F)c1)N1CCC2(CC1)C(=O)N(c1cccc(Cl)c1)C2c1cccnc1 (stereo not drawn) [drawing 664], the “rat VR1 % activation @ 3.3 ug/ml compound” value was 75%.

What follows are compounds tested against NPC1L1 (Rattus norvegicus, UniProt Q6T3U3) (assay: NPC1L1 binding assay (BODIPY-labeled glucuronidated ezetimibe competition), rat). Settings: not given.
A Ki of 0.782 µM was found for O=C(Nc1c(Cl)cccc1Cl)N1CCC2(CC1)C(=O)N(c1ccccc1)C2c1ccccc1 (single isomer, unassigned) [drawing 666] in this work. A Ki of 5.95 µM was found for Cc1cccc(Cl)c1NC(=O)N1CCC2(CC1)C(=O)N(c1ccc(F)cc1)C2c1ccc(Cl)cc1 (stereo not drawn) in this work. A Ki of 1.52 µM was found for O=C(Nc1c(Cl)cccc1Cl)N1CCC2(CC1)C(=O)N(c1ccccc1)C2c1ccccc1 (stereo not drawn) in this work. A Ki of 18 µM was found for O=C(Nc1c(Cl)cccc1Cl)N1CCC2(CC1)C(=O)N(c1ccccc1)C2c1ccccc1 (single isomer, unassigned) [drawing 667] in this work. A Ki of 4.84 µM was found for O=C(Nc1c(Cl)cccc1Cl)N1CCC2(CC1)C(=O)N(c1ccc(F)cc1)C2c1ccc(Cl)cc1 (stereo not drawn) in this work.

These compounds were tested against T2, human NPC1L1 (Homo sapiens, UniProt Q9UHC9) (assay: NPC1L1 binding assay (BODIPY-labeled glucuronidated ezetimibe competition), human). Settings: HEK-293 cells expressing human NPC1L1, 4 hours at 37° C.
T2 construct: expressed in transfected cells; host or cells: HEK-293 (geneticin selection)
T2 sequence (Q9UHC9 22-1359): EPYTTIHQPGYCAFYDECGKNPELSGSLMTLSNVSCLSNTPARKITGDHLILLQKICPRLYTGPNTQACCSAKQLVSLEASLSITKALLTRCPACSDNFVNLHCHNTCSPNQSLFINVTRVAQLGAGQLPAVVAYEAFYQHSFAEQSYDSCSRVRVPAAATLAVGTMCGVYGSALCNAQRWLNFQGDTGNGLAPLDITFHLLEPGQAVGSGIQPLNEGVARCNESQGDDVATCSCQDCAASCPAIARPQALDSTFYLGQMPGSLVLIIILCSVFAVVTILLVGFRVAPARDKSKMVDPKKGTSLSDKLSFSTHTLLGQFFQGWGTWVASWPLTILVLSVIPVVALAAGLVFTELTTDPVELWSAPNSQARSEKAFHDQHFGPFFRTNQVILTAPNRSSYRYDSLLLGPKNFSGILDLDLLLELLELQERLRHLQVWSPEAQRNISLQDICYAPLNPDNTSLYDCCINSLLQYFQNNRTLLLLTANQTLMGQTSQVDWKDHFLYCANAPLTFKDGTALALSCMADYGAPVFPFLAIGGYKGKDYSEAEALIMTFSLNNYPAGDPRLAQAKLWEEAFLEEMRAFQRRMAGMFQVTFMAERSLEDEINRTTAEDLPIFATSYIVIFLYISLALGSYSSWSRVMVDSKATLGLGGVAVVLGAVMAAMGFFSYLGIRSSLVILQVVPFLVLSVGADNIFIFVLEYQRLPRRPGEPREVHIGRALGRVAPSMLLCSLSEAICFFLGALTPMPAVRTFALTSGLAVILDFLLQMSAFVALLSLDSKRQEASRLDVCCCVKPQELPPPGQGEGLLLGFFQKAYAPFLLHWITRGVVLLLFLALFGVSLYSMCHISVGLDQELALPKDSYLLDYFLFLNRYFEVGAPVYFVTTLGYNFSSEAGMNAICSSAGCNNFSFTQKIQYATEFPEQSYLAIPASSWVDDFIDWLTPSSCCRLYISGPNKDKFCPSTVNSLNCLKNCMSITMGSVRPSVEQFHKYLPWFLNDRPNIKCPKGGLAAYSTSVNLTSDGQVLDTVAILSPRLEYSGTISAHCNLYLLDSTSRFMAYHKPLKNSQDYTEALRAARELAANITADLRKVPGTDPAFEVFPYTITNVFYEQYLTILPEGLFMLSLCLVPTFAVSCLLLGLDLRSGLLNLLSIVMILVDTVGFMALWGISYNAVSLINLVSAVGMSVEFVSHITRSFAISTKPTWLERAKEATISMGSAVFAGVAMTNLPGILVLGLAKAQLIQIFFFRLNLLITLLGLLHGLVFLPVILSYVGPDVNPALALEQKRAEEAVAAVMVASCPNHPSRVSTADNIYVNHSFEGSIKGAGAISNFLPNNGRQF
Procedure: HEK-293 cells expressing human NPC1L1 were plated into 384-well black/clear plates (BD Biosciences, Bedford Mass.) for binding experiments the following day. Cell growth media (DMEM, 10% fetal calf serum, 1 mg/mL geneticin, 100 Units/mL penicillin) was aspirated. Cell growth media ([…]) containing 250 nM BODIPY-labeled glucuronidated ezetimibe was added to each well. Cell growth media ([…]) containing the indicated concentration of compound was then added to the wells. Unlabeled glucuronidated ezetimibe ([…]) was used to determine nonspecific binding. The binding reaction was allowed to proceed for 4 hours at 37° C. Subsequently the cell growth media was aspirated and the cells washed once with PBS. The remaining fluorescent labeled glucuronidated ezetimibe bound to the cells was quantified using a FlexStation plate reader (Molecular Devices, Sunnyvale Calif.) to measure fluorescence intensity. Ki values were determined from competition binding curves (n=4 for each point) using Prism and Activity Base software.
A Ki of 1.57 µM was found for O=C(Nc1c(Cl)cccc1Cl)N1CCC2(CC1)C(=O)N(c1ccccc1)C2c1ccccc1 (single isomer, unassigned) [drawing 666] in this work. A Ki of 10.1 µM was found for Cc1cccc(Cl)c1NC(=O)N1CCC2(CC1)C(=O)N(c1ccc(F)cc1)C2c1ccc(Cl)cc1 (stereo not drawn) in this work. A Ki of 2.12 µM was found for O=C(Nc1c(Cl)cccc1Cl)N1CCC2(CC1)C(=O)N(c1ccccc1)C2c1ccccc1 (stereo not drawn) in this work. A Ki of 17.6 µM was found for O=C(Nc1c(Cl)cccc1Cl)N1CCC2(CC1)C(=O)N(c1ccccc1)C2c1ccccc1 (single isomer, unassigned) [drawing 667] in this work. A Ki of 6.41 µM was found for O=C(Nc1c(Cl)cccc1Cl)N1CCC2(CC1)C(=O)N(c1ccc(F)cc1)C2c1ccc(Cl)cc1 (stereo not drawn) in this work.
